The values below come from patent US8183296B2, “Pesticide phenyloxy substituted phenylamidine derivatives” (Bayer Cropscience AG, priority 2005, dated 2012).

Data set [1] can be described thus: logP by HPLC on reversed-phase column (C 18), EEC Directive 79/831 Annex V.A8. The conditions noted are these: C 18, 40° C., 0.1% aqueous formic acid and acetonitrile; for chromatographic logP: reversed-phase HPLC column (C 18), read-out: logPa. The class given is physicochemical. Here is the method: Temperature: 40° C.; Mobile phases: 0.1% aqueous formic acid and acetonitrile; linear gradient from 10% acetonitrile to 90% acetonitrile.
Calibration was carried out using unbranched alkan-2-ones (comprising 3 to 16 carbon atoms) with known logP values (determination of the logP values by the retention times using linear interpolation between two successive alkanones).

Data set [2] relates to Puccinia recondita f. Sp. tritici. Put plainly: In vivo preventive test on Puccinia recondita f. Sp. tritici (wheat brown rust). The note with it: topical, 240 h, 1000 ppm of active ingredient, evaluated 10 days after inoculation, read-out: efficacy. How it is done:
In Vivo Preventive Test on Puccinia recondita f. Sp. tritici (Wheat Brown Rust)
(§1) To produce a suitable preparation of active compound, 1 part by weight of active compound is mixed with the stated amounts of solvent and emulsifier, and the concentrate is diluted with water to the desired concentration.
To test for preventive activity, young plants are […]. After the spray coating has dried on, the plants are sprayed with the preparation of active compound at the stated rate of application. The plants remain for 24 hours in an incubation cabinet at 20° C. and a relative atmospheric humidity of 100%.
The plants are placed in a greenhouse at a temperature of approximately 20° C. and a relative atmospheric humidity of approximately 80% to promote the development of rust pustules.
The test is evaluated 10 days after the inoculation. 0% means an efficacy which corresponds to that of the control, while an efficacy of 100% means that no disease is observed.

Data set [3] deals with Podosphaera leucotricha. As to the kind of experiment: In vivo protective test on Podosphaera leucotricha (apples). The conditions noted are these: topical, 240 h, 100 ppm of active ingredient, evaluated 10 days after inoculation, read-out: efficacy. From the text:
In Vivo Protective Test on Podosphaera leucotricha (Apples) [table] […] To test for protective activity, young plants are sprayed with the preparation of active compound at the stated rate of application. After the spray coating has dried on, the plants are inoculated with an aqueous spore suspension of the causal agent of apple mildew (Podosphaera leucotricha).

Data set [4] concerns Sphaerotheca fuliginea. Put plainly: In vivo protective test on Sphaerotheca fuliginea (cucumbers). The conditions noted are these: Podosphaera fuliginea, topical, 168 h, 100 ppm of active ingredient, evaluated 7 days after inoculation, read-out: efficacy. How it is done:
In Vivo Protective Test on Sahaerotheca fuliginea (Cucumbers)
as §1
To test for protect activity, young plants are sprayed with the preparation of active compound at the stated rate of application. After the spray coating has dried on, the plants are inoculated with an aqueous spore suspension of Sphaerotheca fuliginea. The plants are then placed in a greenhouse at approximately 23° C. and a relative atmospheric humidity of approximately 70%.
(§2) The test is evaluated 7 days after the inoculation. 0% means an efficacy which corresponds to that of the control, while an efficacy of 100% means that no disease is observed.

Data set [5] deals with Erysiphe graminis f.sp. hordei. Put plainly: In vivo preventive test on Erysiphe graminis (powdery mildew on barley). The conditions noted are these: Blumeria graminis, topical, 168 h, 1000 ppm of active ingredient, evaluated 7 days after inoculation, read-out: efficacy. Here is the method: In Vivo Preventive Test on Erysiphe gramini (Powdery Mildew on Barley)
To produce a suitable preparation of active compound, 1 part by weight of active compound or active compound combination is mixed with the stated amounts of solvent and emulsifier, and the concentrate is diluted with water to the desired concentration.
To test for preventive activity, young plants are sprayed with the preparation of active compound or active compound combination at the stated rate of application.
After the spray coating has dried on, the plants are dusted with spores of Erysiphe graminis f.sp. hordei
The plants are placed in a greenhouse at a temperature of approximately 20° C. and a relative atmospheric humidity of approximately 80% to promote the development of mildew pustules.
as §2

Data set [6] relates to Alternaria solani. As to the kind of experiment: In vivo protective test on Alternaria solani (leaf spot of tomato). The note with it: topical, 168 h, 500 ppm of active ingredient, evaluated 7 days after inoculation, read-out: efficacy. How it is done: In Vivo Protective Test on Alternaria solani (Leaf Spot of Tomato)
as §1
To test for protective activity, young plants are sprayed with the preparation of active compound at the stated rate of application. After the spray coating has dried on, the plants are inoculated with an aqueous spore suspension of Alternatia solani. The plants remain for one day in an incubation cabinet at approximately 20° C. and a relative atmospheric humidity of 100%. Then the plants are placed in an incubation cabinet at approximately 20° C. and a relative atmospheric humidity of 96%.
The test is evaluated 7 days after the inoculation. 0% means an efficacy which corresponds to that of the control while an efficacy of 100% means that no disease is observed.

A value given as a limit tells only on which side of the number the result lay.

The compound `Cc1cc(Oc2cc(Cl)c(/N=C/N3CCCCC3C)cc2C)ccc1Cl` (racemic) [Example 52] returned a logPa in data set [1] of 2.80.
The compound `Cc1cc(/N=C/N2CCCCC2C)c(Cl)cc1Oc1ccc(Cl)c(C(C)(C)C)c1` (racemic) [Example 54] showed a logPa in data set [1] of 3.33.
On the same count and under the same terms, with `Cc1cc(/N=C/N2CCCCC2C)c(Cl)cc1Oc1ccc(Cl)c(C(C)C)c1` (racemic) [Example 62] the figure was 3.07.
On to `CCN(C)/C=N/c1cc(C)c(Oc2ccc(Cl)c(C)c2)cc1C` [Example 4], for which the chromatographic logP in data set [1] was 2.31.
The compound `Cc1cc(Oc2ccc(Cl)c(C(C)(C)C)c2)c(C)cc1/N=C/N(C)C1CC1` [Example 7] gave a logPa in data set [1] of 2.21.
With `CCCN(C)/C=N/c1cc(Cl)c(Oc2ccc(Cl)c(CC)c2)cc1C` [Example 11], the pest or weed control at 1000 ppm in data set [2] and in data set [5] was ≥ 70% throughout. Besides, in data set [1], the chromatographic logP was 2.84. Besides, the pest or weed control at 100 ppm in data set [3] and in data set [4] was ≥ 70% throughout.
In data set [1], `CCc1cc(Oc2cc(C)c(/N=C/N(C)C3CC3)cc2Cl)ccc1Cl` [Example 12] showed a logPa of 2.89.
Consider `CCc1cc(Oc2cc(C)c(/N=C/N(C)C3CC3)cc2C)ccc1Cl` [Example 15], for which the logPa in data set [1] was found to be 2.71.
As for `Cc1cc(Oc2cc(C)c(/N=C/N(C)C(C)C)cc2C)ccc1Cl` [Example 16], the pest or weed control at 1000 ppm in data set [2] and in data set [5] was ≥ 70% in each case. In data set [1], the chromatographic logP was found to be 2.4. Also, in data set [3], the pest or weed control at 100 ppm is ≥ 70%. Further, the pest or weed control at 500 ppm in data set [6] was ≥ 70%.
In turn, `Cc1cc(Oc2ccc(Cl)c(C(C)C)c2)c(Cl)cc1/N=C/N(C)C1CC1` [Example 23] displayed a logPa in data set [1] of 2.96.
In data set [1], `Cc1cc(Oc2ccc(Cl)c(C(C)(C)C)c2)c(Cl)cc1/N=C/N(C)C1CC1` [Example 24] registered a logPa of 3.24.
Regarding `CCCN(C)/C=N/c1cc(C)c(Oc2ccc(Cl)c(C(C)C)c2)cc1C` [Example 27], the pest or weed control at 1000 ppm in data set [2] and in data set [5] was ≥ 70% in each case. For the same compound, the chromatographic logP in data set [1] worked out at 3. Besides, the pest or weed control at 100 ppm in data set [3] and in data set [4] was ≥ 70% throughout.
For `CCN(C)/C(S)=N/c1cc(C)c(Oc2ccc(Cl)c(C(C)C)c2)cc1C` [Example 29], in data set [2], the pest or weed control at 1000 ppm is ≥ 70%. The chromatographic logP in data set [1] stood at 4.81. Also, the pest or weed control at 100 ppm in data set [3] and in data set [4] was ≥ 70% each time.
As to `Cc1cc(Oc2ccc(Br)c(C(C)C)c2)c(Cl)cc1/N=C/N(C)C1CC1` [Example 31], in data set [1], the logPa is given as 3.98.
For the compound `Cc1cc(Oc2ccc(Br)c(C(C)C)c2)c(Cl)cc1/N=C/N(C)C(C)C` [Example 33], in data set [1], the chromatographic logP came out at 3.21.
Consider `CCCN(C)/C=N/c1cc(Cl)c(Oc2ccc(Br)c(C(C)C)c2)cc1C` [Example 34], for which the pest or weed control at 1000 ppm in data set [2] and in data set [5] was ≥ 70% throughout. Moreover, in data set [1], the chromatographic logP came to 2.91. Moreover, the pest or weed control at 100 ppm in data set [3] and in data set [4] was ≥ 70% each time.
For `CCN(C)/C(S)=N/c1cc(C)c(Oc2ccc(Cl)c(C(C)(C)C)c2)cc1C` [Example 35], the pest or weed control at 1000 ppm in data set [2] was ≥ 70%. For the same compound, the logPa in data set [1] is 5.44.
As for `Cc1cc(Oc2ccc(Cl)c(C(C)(C)C)c2)c(Cl)cc1/N=C/N1CCCCC1` [Example 36], the logPa in data set [1] was 3.11.
Compound `CCc1cc(Oc2cc(C)c(/N=C/N3CCCCC3)cc2Cl)ccc1Cl` [Example 37] displayed a logPa in data set [1] of 2.74.
For the compound `CCN(C)/C=N/c1cc(C#N)c(Oc2ccc(Cl)c(C(C)C)c2)cc1C` [Example 38], the pest or weed control at 1000 ppm in data set [2] and in data set [5] was ≥ 70% each time. Besides, the chromatographic logP in data set [1] stood at 2.45.
On to `Cc1cc(/N=C/N(C)C(C)C)c(Cl)cc1Oc1ccc(Cl)c(C(C)(C)C)c1` [Example 39], for which the pest or weed control at 1000 ppm in data set [2] and in data set [5] was ≥ 70% in each case. In addition, the chromatographic logP in data set [1] amounted to 3.01. The pest or weed control at 100 ppm in data set [4] was ≥ 70%.
Consider `CCC(C)N(C)/C=N/c1cc(C)c(Oc2ccc(Cl)c(C(C)(C)C)c2)cc1C` (stereo not shown) [Example 40], for which the pest or weed control at 1000 ppm in data set [2] is ≥ 70%. Further, the chromatographic logP in data set [1] was 3.2. For the same compound, in data set [4], the pest or weed control at 100 ppm was ≥ 70%.
As to `CCC(C)N(C)/C=N/c1cc(C)c(Oc2ccc(Cl)c(C(C)C)c2)cc1C` (stereo not shown) [Example 41], in data set [2], the pest or weed control at 1000 ppm is ≥ 70%. For the same compound, in data set [1], the chromatographic logP came out at 2.98. Further, the pest or weed control at 100 ppm in data set [4] is ≥ 70%.
As to `CCC(C)N(C)/C=N/c1cc(Cl)c(Oc2ccc(Cl)c(C(C)C)c2)cc1C` (stereo not shown) [Example 42], the pest or weed control at 1000 ppm in data set [2] was ≥ 70%. In data set [1], the chromatographic logP was found to be 2.9.
`CCC(C)N(C)/C=N/c1cc(Cl)c(Oc2ccc(Cl)c(C(C)(C)C)c2)cc1C` (stereo not shown) [Example 43]: in data set [1], the chromatographic logP stood at 3.19.
Regarding `Cc1cc(Oc2cc(C)c(/N=C/N(C)C(C)C)cc2C)ccc1F` [Example 44], the pest or weed control at 1000 ppm in data set [2] is ≥ 70%. Moreover, the chromatographic logP in data set [1] was found to be 2.29. Also, in data set [4], the pest or weed control at 100 ppm was ≥ 70%.
`Cc1cc(Oc2ccc(Cl)c(C(C)(C)C)c2)c(C)cc1/N=C/N1CCCCC1` [Example 45]: in data set [1], the logPa was 3.02.
For `CCN(C)/C=N/c1cc(C)c(Oc2ccc(Cl)c(CC(C)(C)C)c2)cc1C` [Example 46], the logPa in data set [1] turned out to be 3.11.
Regarding `CCN(C)/C=N/c1cc(C)c(Oc2ccc(Cl)c(C[Si](C)(C)C)c2)cc1C` [Example 47], in data set [1], the logPa is reported as 3.01.
Same read-out and setting: the value for `CCN(C)/C=N/c1cc(C)c(Oc2ccc(Cl)c(C3CCCCC3)c2)cc1C` [Example 48] was 3.18.
For the compound `CCN(C)/C=N/c1cc(C)c(Oc2ccc(Cl)c(C)c2)cc1Cl` [Example 49], the chromatographic logP in data set [1] worked out at 2.39.
Take `Cc1cc(Oc2cc(Cl)c(/N=C/N(C)C(C)C)cc2C)ccc1Cl` [Example 50]: the chromatographic logP in data set [1] turned out to be 2.48.
Turning to `Cc1cc(Oc2cc(Cl)c(/N=C/N3CCCCC3)cc2C)ccc1Cl` [Example 51], the logPa in data set [1] is reported as 2.58.
On the same count and under the same terms, the value for `Cc1cc(/N=C/N2CCCCC2)c(Cl)cc1Oc1ccc(Cl)c(C(C)(C)C)c1` [Example 53] was 3.25.
For `CCCCc1cc(Oc2cc(C)c(/N=C/N(C)CC)cc2C)ccc1Cl` [Example 55], in data set [2], the pest or weed control at 1000 ppm is ≥ 70%. Further, the chromatographic logP in data set [1] is 2.95.
With `CCN(C)/C=N/c1cc(C)c(Oc2ccc(Cl)c(CC(C)C)c2)cc1C` [Example 56], the pest or weed control at 1000 ppm in data set [2] is ≥ 70%. Moreover, the chromatographic logP in data set [1] came to 2.92.
For the compound `CCN(C)/C=N/c1cc(C)c(Oc2ccc(Cl)c(C(C)(C)OC)c2)cc1C` [Example 57], the logPa in data set [1] was determined as 2.26.
As for `CCN(C)/C=N/c1cc(C)c(Oc2ccc(Cl)c(C(C)C)c2)cc1Cl` [Example 60], the chromatographic logP in data set [1] is 2.78.
For `Cc1cc(Oc2ccc(Cl)c(C(C)(C)C)c2)c(C)cc1/N=C/N1CCC(F)(F)CC1` [Example 61], the logPa in data set [1] was 3.25.
Turning to `CCN(C)/C=N/c1cc(Br)c(Oc2ccc(Cl)c(C(C)(C)C)c2)cc1C` [Example 63], in data set [1], the chromatographic logP was determined as 2.67.
In data set [1], `CCN(C)/C=N/c1cc(C)c(Oc2ccc(Cl)c(C3CCCC3)c2)cc1C` [Example 64] returned a logPa of 3.28.
Same read-out and setting: the value for `Cc1cc(Oc2ccc(Cl)c(CC(C)(C)C)c2)c(C)cc1/N=C/N1CCCCC1` [Example 65] was 3.19.
